Measurements: patent US20140322227A1, “PEPTIDES FOR TREATMENT OF BONE DEFICIENCY AND AUTOIMMUNE DISORDERS” (H. LEE MOFFITT CANCER CENTER & RESEARCH INSTITUTE, INC., priority 2013, published 2014)
Numbered stars: 1 amine (or outer) side, 2 acyl side, 3 side chain; on linkers, the order of the positions; unused ones are H or OH. Bridge positions count the residues as written; N and C are the ends. Square brackets hold non-standard residues; d marks the D form. Peptide text beside a SMILES is read from it. * marks the point of attachment. dProlinol(O-CH2CO) = O=C(COC[C@H]1CCCN1[*:1])[*:2]; N(2-Aminoethyl)Gly = O=C(CN(CCN[*:3])[*:1])[*:2]; Nle = CCCC[C@H](N)C(=O)O; Ms = CS(=O)(=O)*

Legend:
[1] = reported; independent of the direct effect on the myeloma cell; cited from earlier work
tumor bearing tibias = assay: Bone density (BV/TV) of tumor bearing tibias by CT scanning in myeloma model; assay type: in vivo; settings: compared to vehicle control (VC) treated tumor bearing mice
Description: FIG. 43. MTI-101 treated mice show increased trabecular bone density compared to tumor-bearing vehicle control-treated mice (VC). The same 10 tibia bones imaged by Faxitron in FIG. 43 were imaged with a Micro PET/SPECT/CT (Siemens Inveon). After imaging, the bones were reconstructed using COBRA (Constraint Based Reconstruction and Analysis) and analyzed with the Siemens Inveon workstation. 30 separate longitudinal images for each tibia were measured for both bone volume and total volume with the indicated parameters (2 mm below growth plate to 2 mm above junction with fibula). All 30 images were combined and the tibia were analyzed by bone volume/total volume (BV/TV). Images of the control group were compared to both MTI-101 and bortezomib treated mice. […] The same bones that were assayed for tumor volume in FIG. 43 were used to determine bone density by CT scanning.

[2] = Stability of MTI-101 in plasma (dog); assay type: in vitro ADME
RAW 264.7 cells = assay: Annexin V flow cytometry cell death assay in RAW 264.7 cells; assay type: cell-based, murine
Description: FIGS. 5A-5D show the effect of a cyclic HYD1 peptide (MTI-101) on RAW 264.7 cells (FIGS. 5A and 5B) and on RAW 264.7 cell-differentiated osteoclasts (FIGS. 5C and 5D). RAW 264.7 cells were treated with 6.25 to 50 μM MTI-101 and at the end of 24 hrs the cells were scrapped and spun down. After a single wash the cells were stained with Annexin V-FITC dye. The resulting Annexin V positivity was determined using Calibur Flow cytometry. RAW 264.7 cells were treated with 6.25 to 50 μM and incubated for 72 hrs. At the end of the incubation 2 mg/ml of 3-(4,5-dimethythiazol-2-yl)-2,5-diphenyl tetrazolium bromide (MTT). After 4 hours incubation, the resulting formazan product was solubilized by addition of DMSO and the resulting color was measured by a plate reader. […] For quantification, the cells in each treated well were manually counted using a light microscope (FIG. 5C). […]
FIGS. 6A-6C show the effect of cyclic peptide (MTI-101) on RAW 264.7 cells and on RAW 264.7 cell-differentiated osteoclasts. […] The resulting Annexin V positivity was determined using Calibur Flow cytometry. […] After 4 hours incubation the resulting formazan product was solubilized by addition of DMSO and the resulting color was measured by a plate reader. […] For quantification, the cells in each treated well were manually counted using a light microscope. […]

[3] = Stability of MTI-101 in plasma (rat); assay type: in vitro ADME
[4] = Stability of MTI-101 in plasma (mouse); assay type: in vitro ADME; settings: room temperature
[5] = 4 degrees Celsius, read-out: Stability - 24 Hour 4 Degrees Celsius
[6] = room temperature, read-out: Stability - 24 Hour Room Temperature

Row | SMILES | bone anabolic effects [1] | bone density (bone volume/total volume, BV/TV) (tumor bearing tibias) | remaining at 24 h [2, 5] [%] | remaining at 24 h [2, 6] [%] | cell death (Annexin V positivity) (RAW 264.7 cells; multiple dosing 6.25 to 50 μM on days 1, 3 and 5, read day 7) | cell death (Annexin V positivity) (RAW 264.7 cells; single treatment 6.25 to 50 μM, 24 hrs) | remaining at 24 h [3, 5] [%] | remaining at 24 h [3, 6] [%] | remaining at 24 h [4] [%]
1 | CC(C)C[C@H](NC(=O)[C@H](Cc1ccccc1)NC(=O)c1cnccn1)B(O)O [bortezomib] | induce bone anabolic effects | increased bone density |  |  |  |  |  |  | 
2 | CC(C)C[C@H](NC(=O)[C@H](CCc1ccccc1)NC(=O)CN1CCOCC1)C(=O)N[C@@H](Cc1ccccc1)C(=O)N[C@@H](CC(C)C)C(=O)[C@@]1(C)CO1 [carfilzomib] | induce bone anabolic effects |  |  |  |  |  |  |  | 
3 | CCCC[C@@H]1NC(=O)CN(S(C)(=O)=O)CCNC(=O)[C@H](CCCCN)NC(=O)[C@H](CC(C)C)NC(=O)[C@H](CCCCN)NC(=O)[C@H](CC(C)C)NC(=O)[C@H](CCCCN)NC(=O)COC[C@H]2CCCN2C(=O)[C@H](Cc2c[nH]c3ccccc23)NC(=O)[C@H](C)NC(=O)[C@H](C(C)C)NC(=O)[C@H](C(C)C)NC1=O [MTI-101] (Ms-[N(2-Aminoethyl)Gly][Nle]VVAW[dProlinol(O-CH2CO)]KLKLK; lactam 1-C) |  |  | 83 | 67 | nor did it induce cell death | nor did it induce cell death | 94 | 90 | 85
